IC50 and EC50 data for five molecules are collected here from patent US20230159546A1, “NOVEL SPIROPYRROLIDINE DERIVED ANTIVIRAL AGENTS” (Enanta Pharmaceuticals, Inc., priority 2021, published 2023).

One test addresses SARS-CoV-2 3CL-protease (Severe acute respiratory syndrome coronavirus 2, UniProt P0DTD1). The test can be described thus: SARS-CoV-2 3C-like (3CL) protease fluorescence assay (FRET). The class given is biochemical. The following applies: recombinant SARS-CoV-2 3CL-protease 10 nM, 30 min preincubation at RT, duplicate; read-out: FRET IC50.
Test [1] concerns 229E human corona virus (hCoV). Nature of the test: 229E live virus assay (CPE, ATPlite readout, MRC-5 cells). To be noted: Human coronavirus 229E, MRC5, 144 h; MRC-5 cells, MOI 0.05, 6 days at 34° C., ATPlite, duplicate; read-out: 229E EC50. The class given is cell-based, hCoV-229E. For orientation: In ATP-based viability assays light output follows the ATP content of the culture.

SMILES strings stand for the structures.

Turning to `N#C[C@@H]1C[C@@]2(CN1S(=O)(=O)c1ncc(-c3ccc(F)cc3)s1)C(=O)Nc1ccccc12` [Example 33], the IC50 (usually the point on the concentration scale where inhibition reaches its midpoint) at SARS-CoV-2 3CL-protease was more than 1 µM. In addition, the EC50 (commonly the concentration at which the effect is half-maximal) in test [1] was more than 1 µM.

Consider `CCNC(=O)N1C[C@]2(C[C@H]1C#N)C(=O)Nc1ccccc12` [Example 46], for which the IC50 at SARS-CoV-2 3CL-protease was more than 1 µM. For the same molecule, in test [1], the EC50 is more than 1 µM.

With `CC(C)C(=O)N1C[C@]2(C[C@H]1C#N)C(=O)Nc1ccccc12` [Example 40], the half-maximal inhibitory concentration (IC50) at SARS-CoV-2 3CL-protease was more than 1 µM. Also, in test [1], the EC50 is more than 1 µM.

On to `CC(C)CC(C(=O)N(C)c1ccccc1)C(=O)N1C[C@]2(C[C@H]1C#N)C(=O)Nc1ccccc12` (stereo partly shown) [Example 2], for which the half-maximal inhibitory concentration (IC50) at SARS-CoV-2 3CL-protease is more than 1 µM. Further, in test [1], the EC50 is more than 1 µM.

Regarding `CC(C)CC(C(=O)NC1CC1)C(=O)N1C[C@]2(C[C@H]1C#N)C(=O)Nc1ccccc12` (stereo partly shown) [Example 3], the half-inhibitory concentration (IC50) at SARS-CoV-2 3CL-protease was more than 1 µM. Also, the concentration giving a half-maximal response (EC50) in test [1] fell in the range of 0.1 to 1 µM.
